Here are results for six molecules from patent US9586950B2 (MERCK SHARP & DOHME CORP., priority 2012, dated 2017).

Molecules are shown by their SMILES. Where two headings read alike, the source gives them in different places.

A word on the IC50: it is the midpoint of a concentration-inhibition curve. Lower therefore signals higher potency.

Assay [1] addresses T1, human orexin-2 receptor (Homo sapiens (Human), UniProt O43614). Nature of the assay: radioligand binding assay, hOX2R BIND. As for the experimental part:
(§1) In a typical experiment the OX1 and OX2 receptor antagonistic activity of the compounds of the present invention was determined in accordance with the following experimental method. For intracellular calcium measurements, Chinese hamster ovary (CHO) cells expressing the rat orexin-1 receptor or the human orexin-2 receptor, are grown in Iscove's modified DMEM containing 2 mM L-glutamine, […], 1% hypoxanthine-thymidine supplement, 100 U/ml penicillin, 100 μg/ml streptomycin and 10% heat-inactivated fetal calf serum (FCS). The cells are seeded at 20,000 cells/well into Becton-Dickinson black 384-well clear bottom sterile plates coated with poly-D-lysine. All reagents were from GIBCO-Invitrogen Corp. The seeded plates are incubated overnight at 37° C. and 5% CO2. Ala-6,12 human orexin-A as the agonist is prepared as a 1 mM stock solution in 1% bovine serum albumin (BSA) and diluted in assay buffer (HBSS containing 20 mM HEPES, 0.1% BSA and 2.5 mM probenecid, pH7.4) for use in the assay at a final concentration of 70 pM. Test compounds are prepared as 10 mM stock solution in DMSO, then diluted in 384-well plates, first in DMSO, then assay buffer. On the day of the assay, cells are washed 3 times with 100 μl assay buffer and then incubated for 60 min (37° C., 5% CO2) in 60 μl assay buffer containing 1 μM Fluo-4AM ester, 0.02% pluronic acid, and 1% BSA. The dye loading solution is then aspirated and cells are washed 3 times with 100 μl assay buffer. 30 μl of that same buffer is left in each well. Within the Fluorescent Imaging Plate Reader (FLIPR, Molecular Devices), test compounds are added to the plate in a volume of 25 μl, incubated for 5 min and finally 25 μl of agonist is added. Fluorescence is measured for each well at 1 second intervals for 5 minutes and the height of each fluorescence peak is compared to the height of the fluorescence peak induced by 70 pM Ala-6,12 orexin-A with buffer in place of antagonist. […] Alternatively, compound potency can be assessed by a radioligand binding assay (described in Bergman et. al. Bioorg. Med. Chem. Lett. 2008, 18, 1425-1430) in which the inhibition constant (Ki) is determined in membranes prepared from CHO cells expressing either the OX1 or OX2 receptor. The intrinsic orexin receptor antagonist activity of a compound which may be used in the present invention may be determined by these assays.

In assay [2] the target is T1, human orexin-2 receptor. Nature of the assay: FLIPR Ca2+ Flux Assay, hOX2R FLIPR. The assay is classed as cell-based. The settings on record: CHO cells, 70 pM Ala-6,12 human orexin-A agonist. As for the experimental part:
as §1
For orientation: Calcium flux is commonly read through the fluorescence of an indicator in the cells.

Assay [3] has as its target T2, hOX1R (orexin-1 receptor) (Rattus norvegicus, UniProt P56718). Nature of the assay: FLIPR Ca2+ Flux Assay, hOX1R FLIPR. The assay is classed as cell-based. The following applies: CHO cells, 70 pM Ala-6,12 human orexin-A agonist. As for the experimental part: as §1
The target of assay [4] is T2, hOX1R (orexin-1 receptor). Nature of the assay: radioligand binding assay, hOX1R BIND. The following applies: membranes from CHO cells expressing OX1 receptor; read-out: hOX1R BIND hKi. As for the experimental part: In a typical experiment the OX1 and OX2 receptor antagonistic activity of the compounds of the present invention was determined in accordance with the following experimental method. For intracellular calcium measurements, Chinese hamster ovary (CHO) cells expressing the rat orexin-1 receptor or the human orexin-2 receptor, are grown in Iscove's modified DMEM containing 2 mM L-glutamine, […], 1% hypoxanthine-thymidine supplement, 100 U/ml penicillin, 100 μg/ml streptomycin and 10% heat-inactivated fetal calf serum (FCS). The cells are seeded at 20,000 cells/well into Becton-Dickinson black 384-well clear bottom sterile plates coated with poly-D-lysine. […] Within the Fluorescent Imaging Plate Reader (FLIPR, Molecular Devices), test compounds are added to the plate in a volume of 25 μl, incubated for 5 min and finally 25 μl of agonist is added. Fluorescence is measured for each well at 1 second intervals for 5 minutes and the height of each fluorescence peak is compared to the height of the fluorescence peak induced by 70 pM Ala-6,12 orexin-A with buffer in place of antagonist. […] Alternatively, compound potency can be assessed by a radioligand binding assay (described in Bergman et. al. Bioorg. Med. Chem. Lett. 2008, 18, 1425-1430) in which the inhibition constant (Ki) is determined in membranes prepared from CHO cells expressing either the OX1 or OX2 receptor. […]

[5] abbreviates: membranes from CHO cells expressing OX2 receptor, read-out: hOX2R BIND hKi.

T1 sequence (O43614 whole entry): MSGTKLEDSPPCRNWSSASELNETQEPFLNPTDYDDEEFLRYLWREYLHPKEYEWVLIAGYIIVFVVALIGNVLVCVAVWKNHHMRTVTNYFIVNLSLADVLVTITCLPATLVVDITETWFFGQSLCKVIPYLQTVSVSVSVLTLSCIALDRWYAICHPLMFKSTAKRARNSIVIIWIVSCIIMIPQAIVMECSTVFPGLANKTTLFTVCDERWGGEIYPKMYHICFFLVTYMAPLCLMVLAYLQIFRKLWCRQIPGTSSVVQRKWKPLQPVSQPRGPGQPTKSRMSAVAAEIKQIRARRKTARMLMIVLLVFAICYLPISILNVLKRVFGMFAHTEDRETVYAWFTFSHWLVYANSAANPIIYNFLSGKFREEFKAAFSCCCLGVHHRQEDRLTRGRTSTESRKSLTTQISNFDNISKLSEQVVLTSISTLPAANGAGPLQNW
T2 sequence (P56718 whole entry, looked up): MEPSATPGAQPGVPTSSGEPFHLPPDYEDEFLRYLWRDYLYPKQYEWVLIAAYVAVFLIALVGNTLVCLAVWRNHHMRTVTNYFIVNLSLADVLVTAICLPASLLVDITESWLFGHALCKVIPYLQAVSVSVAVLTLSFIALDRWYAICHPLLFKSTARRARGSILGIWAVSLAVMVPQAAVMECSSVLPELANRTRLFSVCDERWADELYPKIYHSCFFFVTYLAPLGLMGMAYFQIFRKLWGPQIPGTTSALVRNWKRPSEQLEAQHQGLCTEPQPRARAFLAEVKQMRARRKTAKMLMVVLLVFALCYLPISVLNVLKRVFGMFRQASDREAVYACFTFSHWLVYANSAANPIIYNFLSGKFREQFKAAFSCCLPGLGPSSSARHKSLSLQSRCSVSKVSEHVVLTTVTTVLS

With `COC(=O)c1c(C#N)ccnc1O[C@@H]1CC[C@@H](C)N(C(=O)c2cc(C)ccc2-n2nccn2)C1` [Example 18, methyl 4-cyano-2-{[(3R,6R)-6-methyl-1-{[5-methyl-2-(2H-1,2,3-triazol-2-yl)phenyl]carbonyl}piperidin-3-yl]oxy}pyridine-3-carboxylate], the Ki in assay [1] (setting [5]) turned out to be 0.48 nM. Further, the IC50 is 22 nM in assay [2] and 311 nM in assay [3].

Take `COC(=O)c1c(C#N)ccnc1O[C@@H]1CC[C@@H](C)N(C(=O)c2c(C)cccc2-n2nccn2)C1` [Example 19, methyl 4-cyano-2-{[(3R,6R)-6-methyl-1-{[2-methyl-6-(2H-1,2,3-triazol-2-yl)phenyl]carbonyl}piperidin-3-yl]oxy}pyridine-3-carboxylate]: the Ki in assay [1] (setting [5]) stood at 0.26 nM. Also, the IC50 in assay [2] came out at 16.9 nM; in assay [3], 208 nM.

Turning to `COC(=O)c1c(C#N)ccnc1O[C@@H]1CCC(C)N(C(=O)c2ccccc2-c2ncccn2)C1` (stereo partly shown) [Example 20], the Ki in assay [1] (setting [5]) worked out at 0.54 nM; in assay [4], 30.8 nM. The IC50 in assay [2] was 23.8 nM; in assay [3], 417 nM.

With `COC(=O)c1c(C#N)ccnc1O[C@@H]1CC[C@@H](C)N(C(=O)c2ccc(F)cc2-c2ncccn2)C1` [Example 22, methyl 4-cyano-2-({(3R,6R)-1-[(4-fluoro-2-pyrimidin-2-ylphenyl)carbonyl]-6-methylpiperidin-3-yl}oxy)pyridine-3-carboxylate], the Ki in assay [1] (setting [5]) came to 0.68 nM. Moreover, the IC50 in assay [2] came to 33.6 nM; in assay [3], 711 nM.

Take `COC(=O)c1c(C#N)ccnc1O[C@@H]1CC[C@@H](C)N(C(=O)c2cc(F)ccc2-c2ncccn2)C1` [Example 23, methyl 4-cyano-2-({(3R,6R)-1-[(5-fluoro-2-pyrimidin-2-ylphenyl)carbonyl]-6-methylpiperidin-3-yl}oxy)pyridine-3-carboxylate]: the Ki in assay [1] (setting [5]) came out at 0.47 nM. In addition, the IC50 in assay [2] came to 32 nM; in assay [3], 417 nM.

Turning to `COC(=O)c1c(C#N)ccnc1O[C@@H]1CC[C@@H](C)N(C(=O)c2ccccc2-n2ncnn2)C1` [Example 25], in assay [1], the Ki amounted to 0.76 nM. For the same molecule, the IC50 is 7 nM in assay [2] and 1290 nM in assay [3].
